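Compound exposure: 48 hours, 5 concentrations, 96-well plates. Abbreviation: GI50, concentration required for 50% inhibition of growth.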 Active and inactive are the calls of the source. No stated cut-off is given here; in the data, active = GI50 up to about 1.1 µM and inactive = higher.
Assays:
Experiment in all cases: inhibition of tumour cell growth, NCI panel, 48 h
[1] = test system: ACHN
[2] = test system: DU-145
[3] = test system: HCT-116
[4] = test system: HCT-15
[5] = test system: HT-29
[6] = test system: KM12
[7] = test system: MCF7
[8] = test system: MOLT-4
[9] = test system: NCI-H460
[10] = test system: OVCAR-5
[11] = test system: PC-3
[12] = test system: SF-539
[13] = test system: SK-OV-3
[14] = test system: SR
[15] = test system: SW-620
[16] = test system: U-251
[17] = test system: UACC-257
[18] = test system: UACC-62
[19] = test system: SNB-75

| SMILES | GI50 [1] | GI50 [2] | GI50 [3] | GI50 [4] [µM] | GI50 [5] | GI50 [6] | GI50 [7] | GI50 [8] | GI50 [9] | GI50 [10] | GI50 [11] | GI50 [12] | GI50 [13] | GI50 [14] | GI50 [15] | GI50 [16] | GI50 [17] | GI50 [18] | GI50 [19] |
| --- | --- | --- | --- | --- | --- | --- | --- | --- | --- | --- | --- | --- | --- | --- | --- | --- | --- | --- | --- |
| O=C1Nc2ccccc2/C1=N/NC(=S)Nc1cccc(Cl)c1 | 6.34 µM (inactive) | 22.5 µM (inactive) | 3.49 µM (inactive) | 7.64 | 10.1 µM (inactive) | 7.26 µM (inactive) | 8.43 µM (inactive) | 0.614 µM (active) | 5.52 µM (inactive) | 24.5 µM (inactive) | 8.02 µM (inactive) | 7 µM (inactive) | 20.7 µM (inactive) | 1.73 µM (inactive) | 4.09 µM (inactive) | 10.8 µM (inactive) | 29.4 µM (inactive) | 8.41 µM (inactive) |  |
| O=C(CSc1n[nH]c(=O)[nH]c1=O)NNC(=O)c1cccc2nc3ccccc3nc12 | > 100 µM (inactive) | 36.5 µM (inactive) | > 100 µM (inactive) | 72.8 | 49.4 µM (inactive) | 79.3 µM (inactive) | 38.2 µM (inactive) | > 100 µM (inactive) | 32.6 µM (inactive) | > 100 µM (inactive) | > 100 µM (inactive) | 71.6 µM (inactive) | > 100 µM (inactive) | > 100 µM (inactive) | > 100 µM (inactive) | > 100 µM (inactive) | 58.7 µM (inactive) | > 100 µM (inactive) |  |
| O=C1C(/C=C/c2ccc(Cl)cc2)=NNC2N1N=C1NC(=O)C3(NN12)c1ccccc1-c1ccccc13 (configuration not stated) | > 100 µM (inactive) | > 100 µM (inactive) | > 100 µM (inactive) | 69.5 | 66.2 µM (inactive) |  | 26.5 µM (inactive) |  | > 100 µM (inactive) | > 100 µM (inactive) | > 100 µM (inactive) | > 100 µM (inactive) | > 100 µM (inactive) | < 0.01 µM (active) | > 100 µM (inactive) | > 100 µM (inactive) | > 100 µM (inactive) | > 100 µM (inactive) | > 100 µM (inactive) |
| COc1ccc(C2=Nn3c(nc4sc(-c5ccccc5)cc4c3=O)SC2)cc1 | 7.35 µM (inactive) | > 100 µM (inactive) | 92.3 µM (inactive) | > 100 | > 100 µM (inactive) | 81.1 µM (inactive) | > 100 µM (inactive) | > 100 µM (inactive) | 48.4 µM (inactive) | > 100 µM (inactive) | > 100 µM (inactive) | > 100 µM (inactive) | > 100 µM (inactive) | > 100 µM (inactive) | 37.3 µM (inactive) | > 100 µM (inactive) | > 100 µM (inactive) | > 100 µM (inactive) |  |
| C=C(Br)C/N=C/N(C)C | > 100 µM (inactive) | > 100 µM (inactive) | > 100 µM (inactive) | > 100 | > 100 µM (inactive) |  | > 100 µM (inactive) | > 100 µM (inactive) |  | > 100 µM (inactive) | > 100 µM (inactive) | > 100 µM (inactive) | > 100 µM (inactive) | > 100 µM (inactive) |  | > 100 µM (inactive) | > 100 µM (inactive) | > 100 µM (inactive) | > 100 µM (inactive) |
| O=C(CN1CCOCC1)c1ccc2c(c1)oc(=O)n2CCN1CCOCC1 |  | > 100 µM (inactive) | > 100 µM (inactive) |  | > 100 µM (inactive) | > 100 µM (inactive) | > 100 µM (inactive) | > 100 µM (inactive) |  | > 100 µM (inactive) | > 100 µM (inactive) | > 100 µM (inactive) | > 100 µM (inactive) | > 100 µM (inactive) | > 100 µM (inactive) | > 100 µM (inactive) |  |  | > 100 µM (inactive) |
| O=S(=O)(Nc1ccccc1S(=O)(=O)c1ccccc1)c1ccccc1 | 82.2 µM (inactive) | 87.9 µM (inactive) | 77.1 µM (inactive) | 50.6 | 48 µM (inactive) | 56.8 µM (inactive) | > 100 µM (inactive) | 65.8 µM (inactive) |  | > 100 µM (inactive) | 52.4 µM (inactive) | > 100 µM (inactive) | > 100 µM (inactive) | > 100 µM (inactive) | 92.3 µM (inactive) | 41.1 µM (inactive) | 73.1 µM (inactive) | 49 µM (inactive) | > 100 µM (inactive) |
| CN1C(=O)c2ccccc2NC(=O)C12O[C@@H]2c1ccccc1 (some centres not stated) | > 100 µM (inactive) | > 100 µM (inactive) | > 100 µM (inactive) | > 10 | > 100 µM (inactive) | > 100 µM (inactive) | > 100 µM (inactive) | > 100 µM (inactive) | > 100 µM (inactive) | > 100 µM (inactive) | > 100 µM (inactive) | > 100 µM (inactive) |  | > 100 µM (inactive) | > 100 µM (inactive) | > 100 µM (inactive) | > 100 µM (inactive) | > 100 µM (inactive) | 62.8 µM (inactive) |
| CC(C)n1c(=O)c2nn3c(=O)n(C(C)C)c(=O)c3nn2c1=O | > 100 µM (inactive) | > 100 µM (inactive) | > 100 µM (inactive) | > 100 | > 100 µM (inactive) | > 100 µM (inactive) | > 100 µM (inactive) | > 100 µM (inactive) | > 100 µM (inactive) | > 100 µM (inactive) | > 100 µM (inactive) | > 100 µM (inactive) | > 100 µM (inactive) | > 100 µM (inactive) | > 100 µM (inactive) |  | > 100 µM (inactive) | > 100 µM (inactive) |  |
| CC(C)C1=C2CCC3(C)C(CCC4C5C6OCC5(CCC6(C)C)CCC43C)C2(C)CC1 (configuration not stated) | 20 µM (inactive) | 20.2 µM (inactive) | 18.8 µM (inactive) | 19.1 | 17.7 µM (inactive) | 16.9 µM (inactive) | 23.4 µM (inactive) | 16.3 µM (inactive) | 14 µM (inactive) | 33 µM (inactive) | > 10 µM (inactive) | 16.9 µM (inactive) | 58.1 µM (inactive) | 11.3 µM (inactive) | 22.5 µM (inactive) | 19.1 µM (inactive) | 18.1 µM (inactive) | 17.7 µM (inactive) |  |
| c1ccc2c(-c3cnc(-c4c[nH]c5ccccc45)cn3)c[nH]c2c1 | 65.5 µM (inactive) | > 100 µM (inactive) | 5.2 µM (inactive) | 58.6 |  | 74.1 µM (inactive) | 6.61 µM (inactive) |  | 46.9 µM (inactive) | 46.1 µM (inactive) | 38 µM (inactive) | 23.6 µM (inactive) | 49.1 µM (inactive) | 30 µM (inactive) | 18.9 µM (inactive) | 49.7 µM (inactive) | 43.4 µM (inactive) | 32.8 µM (inactive) | 22.6 µM (inactive) |
| CCCCCCC(O)C(O)CCC(O)C1CCC(CCCCC(O)CC2=CC(C)OC2=O)O1 (configuration not stated) [ACETOGENINS] | 1.19 µM (inactive) | 6.19 µM (inactive) | 2.8 µM (inactive) | 4.53 | 2.33 µM (inactive) | 2.15 µM (inactive) | 1.26 µM (inactive) | 2.59 µM (inactive) | 2.59 µM (inactive) | 8.3 µM (inactive) | 2.78 µM (inactive) | 4.29 µM (inactive) |  | 1.69 µM (inactive) | 4.04 µM (inactive) | 3.54 µM (inactive) | 1.86 µM (inactive) | 2.06 µM (inactive) | 2.69 µM (inactive) |
